Source: patent publication US12478594B2, “Methods of treatment of kidney injury associated with infection or trauma” (University of Pittsburgh—Of the Commonwealth System of …, priority 2019, dated 2025)

Columns and labels:
[1] = test system: hemin treated kidney organoids; assay: Hemin-induced injury of kidney organoids: collagen hybridizing peptide (CHP) staining; type: cell-based, human; conditions: 25 μM hemin two days, then 10 days with 1 μM, 3 μM, and 9 μM compound
Protocol: A simple bioreactor-based method for growing renal organoids for long periods of time is provided, resulting in tissue with a high degree of maturation. Hemin-induced acute kidney injury produced by the oxidation of the heme of hemoglobin and myoglobin, causing oxidative stress and inflammation. […] These observations indicate that the kidney organoid model of AKI provides a valuable new platform to validate novel compounds in the setting of human AKI.
Organoids were prepared essentially as described in Przepiorski A, Sander V, Tran T, Hollywood J A, Sorrenson B, Shih J H, Wolvetang E J, McMahon A P, Holm™ and Davidson A J. A Simple Bioreactor-Based Method to Generate Kidney Organoids from Pluripotent Stem Cells. Stem Cell Reports. 2018; 11:470-484. As shown in FIG. 8 (A), induced pluripotent stem cells (iPSCs) were cultured for three 3 days in with 8 μM of the Wnt agonist CHIR-99021 (CHIR, e.g., 6-[[2-[[4-(2,4-dichlorophenyl)-5-(5-methyl-1H-imidazol-2-yl)-2-pyrimidinyl]amino]ethyl] amino]-3-pyridinecarbonitrile) in BPEL (BSA poly(vinyl alcohol) essential lipids)), and were then cultured for an additional 11 days in DMEM with Knockout™ Serum Replacement (KOSR). At 14 days, DMEM F12 medium containing 25 μM Hemin (Sigma, H9039) is applied for two days, followed by 10 days with 1 μM, 3 μM, and 9 μM UPHD186 in DMEM with 10% KOSR. UPHD25 was evaluated in the same manner. […]

[2] = test system: renal mRNA of inflammation, kidney injury, matrix remodeling, cell cycle, proliferation and fibrosis genes; assay: CLP sepsis-associated AKI model: renal mRNA expression (quantitative PCR); type: in vivo, Balb/c mice
From the text: (§1) Balb/c mice (20-24 weeks old, male and female, Charles River Labs) were used. Mice were subjected to cecal ligation and puncture surgery (CLP) in accordance with methods reported by Rittirsch et al. (Rittirsch D, Huber-Lang M S, Flierd M A, Ward P A: Immunodesign of experimental sepsis by cecal ligation and puncture. Nature protocols 2009, 4(1):31-36). Specifically, Sepsis was induced by ligating 1 cm length of the cecum from the apex and two punctures with a 25-Gauge needle. Animals in the sham group had only laparotomy without any cecal punctures. Post-surgery treatment included 40 mL/kg Ringer's solution after surgery, and ceftriaxone (25 mg/kg), metronidazole (12.5 mg/kg), and buprenorphine (0.05 mg/kg), every 12 hours administered intraperitoneally (i.p.) for 3 days. Septic animals were randomly divided into four groups to receive a seven-day UPHD186 (50 mg/kg/day, i.p.) or vehicle (20% Cyclodextrin-2% DMSO in PBS, i.p.) treatment, starting from 48 hours or 96 hours post-CLP. To determine treatment efficacy, time-serial blood samples (approx. 10 μL) were collected through animals' saphenous vein on the days before/after the treatment session. All mice were followed for survival and sacrificed at the 3rd day post-treatment or the endpoint day 14 to collect kidneys and blood samples.
Total tissue RNA was isolated using TRIzol™ reagent (Life Technologies), DNase kit (Invitrogen), and converted into complementary DNA with High-Capacity cDNA Reverse Transcription Kits (Applied Biosystems). Quantitative polymerase chain reaction was performed on a Mx3000PTM system (Agilent Technologies) using primers (Table 1) and SYBR® Select Master Mix (2×) (Applied Biosystems). The expression of each target gene was assayed in duplicate and presented as fold change normalized by that of the endogenous control gene, gapdh expression.
Kidney samples were examined at mRNA levels for genes controlling inflammation (nfκb, ccl20, traf1, traf2, icam), kidney injury (kim1), and matrix remodeling markers (lox, loxl1). Septic animals had higher levels of gene expression compared to sham controls (FIG. 4). […] (FIG. 3D).
Kidney samples on day 14 (following CLP) were examined for mRNA levels for treatment effects on cell cycle regulation (cdkn1a), proliferation (ki67), and pro-fibrosis genes (plod2, fsp1, col1a1). Septic animals had higher levels of fsp1 and col1a1 expressions compared to sham controls (FIG. 7). Early treatment with UPHD186 further increased fsp1 (fold-increase, 3.3±1.3 vs. corresponding CLP+vehicle controls 2.2±1.1, P<0.05), whereas delayed treatment promoted ki67 and inhibited col1a1 expression (fold-increase, ki67: 1.6±0.7 vs. corresponding controls 1.0±0.5, P<0.01; col1a1, 2.2±0.9 vs. 3.7±2.4, P<0.05) (FIG. 5C). Thus, pro-fibrotic gene expression was increased in the recovery phase and early treatment further aggravated these changes; whereas delayed treatment promoted proliferation and attenuated fibrosis.

IL6 = assay: CLP sepsis-associated AKI model: circulating cytokine IL6 (ELISA); type: in vivo, Balb/c mice; conditions: early and delayed treatment regimens
From the text: as §1, with “samples. […]” for “samples.”

[3] = test system: F4/80+ mononuclear cells in the kidneys; assay: CLP sepsis-associated AKI model: kidney monocytes and their phenotype (immunofluorescence), day 3 post-treatment; type: in vivo, Balb/c mice; conditions: for F4/80+ cell numbers in the kidneys: 50 mg/kg/day i.p.
From the text: as §1
(§2) The left kidney was flushed with 10 mL ice-cold PBS, 10 mL 10% formalin through the left ventricle immediately after euthanasia, and the kidney was collected. For immunofluorescence staining, half of the kidney was fixed in 10% formalin for 2 h on ice, incubated in 30% (vol/vol) sucrose at 4° C. overnight, snap frozen in OCT (Sakura FineTek), and cut into 7-μm sections. Sections were treated with heated citrate (Antigen Unmasking Solution, Vector Laboratories), blocked in 10% (vol/vol) normal goat serum (Vector Laboratories) in 0.3M glycine-PBST for 1 h RT, incubated with primary antibodies at 4° C. overnight, and then corresponding secondary antibodies (Jackson ImmunoResearch) in PBS containing 10% of the blocking solution for 1 h RT. Stained sections were mounted in mounting Medium with DAPI (Vectashield H-1000, Vector Laboratories), and stored at −20° C. until observed under confocal microscopy (Fluoview 1000, Olympus). Three washes with PBST were performed between each step. The primary antibodies were: goat anti-ICAM (R&D Systems), rabbit anti-Col1 (Novus Biologicals), rabbit anti-fibronectin (Abcam), rabbit anti-vimentin (Abcam), rat anti-F4/80 (Abcam), rabbit anti-iNOS (Abcam), and phalloidin (Thermo Fisher Scientific) was used for staining of the brush-boarder. For immunohistochemistry analysis, the infused kidney was fixed in 10% formalin at 4° C. overnight, embedded in paraffin, and cut into 5-μm sections. Hematoxylin & eosin and Masson's trichrome stain were performed. Semiquantitative renal histology injury scoring was assessed by an investigator blinded to group assignment and the percentage of fibrosis per area was quantified using ImageJ (https://imagej.nih.gov/ij/; National Institutes of Health).
Kidney samples collected at day 3 post-treatment were examined for presence numbers of monocytes in the kidney and their phenotypes (monocytes: F4/80^+, M1: F4/80^+iNOS^+, M2: F4/80^+MR^+).

[4] = test system: renal fibrosis and histology injury; assay: CLP sepsis-associated AKI model: renal histology (Masson's trichrome, hematoxylin & eosin), day 14; type: in vivo, Balb/c mice
From the text: as §1
as §2, with “The primary antibodies were: goat anti-ICAM (R&D Systems), rabbit anti-Col1 (Novus Biologicals), rabbit anti-fibronectin (Abcam), rabbit anti-vimentin (Abcam), rat anti-F4/80 (Abcam), rabbit anti-iNOS (Abcam), and phalloidin (Thermo Fisher Scientific) was used for staining of the brush-boarder. For immunohistochemistry analysis, the infused kidney was fixed in 10% formalin at 4° C. overnight, embedded in paraffin, and cut into 5-μm sections. Hematoxylin & eosin and Masson's trichrome stain were performed.” left out, “Health). […]” for “Health).”

[5] = CLP sepsis-associated AKI model: circulating creatinine; type: in vivo, Balb/c mice; conditions: early and delayed treatment regimens
From the text: as §1, with “samples. […]” for “samples.”

[6] = test system: septic mice (cecal ligation and puncture); assay: CLP sepsis-associated AKI model: sepsis survival to day 14; type: in vivo, Balb/c mice; conditions: 50 mg/kg/day i.p. 7 days
From the text: as §1, with “To determine treatment efficacy, time-serial blood samples (approx. 10 μL) were collected through animals' saphenous vein on the days before/after the treatment session. All mice were followed for survival and sacrificed at the 3rd day post-treatment or the endpoint day 14 to collect kidneys and blood samples.” left out
Graph and statistical analyses were performed using GraphPad Prism 8 (GraphPad Software). […] Tukey's test was used to determine significance of differences among multiple groups and t test between two groups; survival rates were analyzed using log-rank Mantel-Cox test. […]

IGFBP7 = assay: CLP sepsis-associated AKI model: renal IGFBP7 expression, day 14; type: in vivo, Balb/c mice
From the text: as §1
The left kidney was flushed with 10 mL ice-cold PBS, 10 mL 10% formalin through the left ventricle immediately after euthanasia, and the kidney was collected. For immunofluorescence staining, half of the kidney was fixed in 10% formalin for 2 h on ice, incubated in 30% (vol/vol) sucrose at 4° C. overnight, snap frozen in OCT (Sakura FineTek), and cut into 7-μm sections. […] Semiquantitative renal histology injury scoring was assessed by an investigator blinded to group assignment and the percentage of fibrosis per area was quantified using ImageJ (https://imagej.nih.gov/ij/; National Institutes of Health).
Renal expression/location of the kidney stress marker insulin-like growth factor-binding protein 7 (IGFBP7) was measured at Day-14 kidneys. […]

COC(=O)CCCSc1ccccc1 [UPHD25, methyl 4-(phenylsulfanyl)butanoate]
collagen (CHP staining), fibrosis [1]: reduction of collagen

O=C(CCCSc1ccccc1)Nc1ccccc1O [UPHD186, N-(2-hydroxyphenyl)-4-(phenylsulfanyl)butanamide]
inflammation, kidney injury and matrix remodeling marker mRNA (nfκb, ccl20, traf1, traf2, icam, kim1, lox, loxl1), effect ([2]; delayed treatment, day 3 post-treatment, compared to CLP controls): no effect on any marker expressions
ki67 renal mRNA ([2]; delayed treatment, day 14 after CLP, controls 1.0±0.5): 1.6±0.7 fold-increase
col1a1 renal mRNA ([2]; delayed treatment, day 14 after CLP, controls 3.7±2.4): 2.2±0.9 fold-increase
loxl1 renal mRNA ([2]; early treatment, day 3 post-treatment, CLP 10.5±5.7): 5.0±2.3 fold-increase
icam1 renal mRNA ([2]; early treatment, day 3 post-treatment, CLP 25.3±4.1): 9.1±2.3 fold-increase
traf2 renal mRNA ([2]; early treatment, day 3 post-treatment, CLP 32.5±6.9): 12.2±3.0 fold-increase
traf1 renal mRNA ([2]; early treatment, day 3 post-treatment, CLP 51.5±9.1): 17.1±3.6 fold-increase
cdkn1a renal mRNA, effect ([2]; early treatment, day 14 (FIG. 5C)): increased cdkn1a
fsp1 renal mRNA ([2]; early treatment, day 14 after CLP, CLP+vehicle 2.2±1.1): 3.3±1.3 fold-increase
circulating cytokine IL6, treatment effect (IL6): neither creatinine (FIG. 5B) nor cytokine IL6 (FIG. 6) were affected
iNOS expression intensities (M1 marker) ([3]; delayed treatment (96 h post-CLP), CLP vehicle 3.1±1.4): 1.4±0.3
F4/80+ cell numbers in the kidneys ([3]; delayed treatment (from 96 h post-CLP), CLP vehicle 52.4±32.9): 40.6±24.7 cells/field
MR expression (M2 marker), treatment effect ([3]; early and delayed treatment groups): no treatment effects were observed
iNOS expression intensities (M1 marker) ([3]; early treatment (48 h post-CLP), CLP vehicle 1.2±0.7): 2.7±0.3
F4/80+ cell numbers in the kidneys ([3]; early treatment (from 48 h post-CLP), CLP vehicle 41.2±26.1): 15.7±7.7 cells/field
histology injury score ([4]; delayed treatment, vehicle 2.1±1.0, P=0.13): 1.4±1.0
collagen volume fraction ([4]; delayed treatment, vehicle 26.2±7.6, P=0.08): 21.2±4.8%
histology injury score ([4]; early treatment, CLP vehicle 1.7±0.9): 2.6±1.3
collagen volume fraction ([4]; early treatment, CLP vehicle 28.4±4.3): 27.6±4.3%
circulating creatinine, treatment effect [5]: neither creatinine (FIG. 5B) nor cytokine IL6 (FIG. 6) were affected
survival rate by day 14 ([6]; delayed treatment (96 h), vehicle 39%, P<0.01): 79%
survival rate by day 14 ([6]; early treatment (48 h), vehicle 54%, P=0.32): 69%
overall IGFBP7 renal expression, effect (IGFBP7; delayed treatment, day 14): no such effect
secretory pattern of IGFBP7, effect (IGFBP7; early and delayed treatment regimens, day 14 (data not shown)): neither treatment regimens changed the secretory pattern of IGFBP7
overall IGFBP7 renal expression (IGFBP7; early treatment, day 14, CLP 396.9±109.0): 674.1±190.5
collagen (CHP staining), fibrosis [1]: reduced
